Values quoted from earlier work as cited in US7229642B2, “Amino acid modulated extended release dosage form” (Scolr, Inc., priority 1999, dated 2007).
Like-named read-outs stand apart in the source and are kept apart here.

Conditions: for HYDROPHOBIC VALUE: hydropathy scale of Pliska et al., J. Chromatog. 216, 79, 1981, glycine = 0; for CHARACTERIZATION (hydropathy): hydropathy characteristic in words

| Compound | HYDROPHOBIC VALUE | CHARACTERIZATION (hydropathy) | CHARACTERIZATION (hydropathy) (listed as glycine) | CHARACTERIZATION (hydropathy) (listed as iso-leucine) |
| --- | --- | --- | --- | --- |
| C[C@H](N)C(=O)O [Alanine] | 0.35 |  |  |  |
| NC(=O)C[C@H](N)C(=O)O [Asparagine] | −0.99 |  |  |  |
| N[C@@H](CC(=O)O)C(=O)O [Aspartic acid] | −2.15 | strongly hydrophilic |  |  |
| N[C@@H](CS)C(=O)O [Cysteine] | 0.76 |  |  |  |
| NCC(=O)O [Glycine] | 0 | Neutral, Balanced | neutral |  |
| N[C@@H](Cc1c[nH]cn1)C(=O)O [Histidine] | −0.65 |  |  |  |
| CC[C@H](C)[C@H](N)C(=O)O [Isoleucine] | 1.83 | Strongly Hydrophobic |  | strongly hydrophobic |
| NCCCC[C@H](N)C(=O)O [Lysine] | −1.54 |  |  |  |
| CSCC[C@H](N)C(=O)O [Methionine] | 1.10 | Moderately Hydrophobic |  |  |
| N[C@@H](Cc1ccccc1)C(=O)O [Phenylalanine] | 1.69 |  |  |  |
| O=C(O)[C@@H]1CCCN1 [Proline] | 0.84 |  |  |  |
| N[C@@H](CO)C(=O)O [Serine] | −0.63 |  |  |  |
| C[C@@H](O)[C@H](N)C(=O)O [Threonine] | −0.27 | Weakly Hydrophilic |  |  |
| N[C@@H](Cc1c[nH]c2ccccc12)C(=O)O [Tryptophan] | 1.35 |  |  |  |
| N[C@@H](Cc1ccc(O)cc1)C(=O)O [Tyrosine] | 0.39 | Weakly Hydrophobic |  |  |
| CC(C)[C@H](N)C(=O)O [Valine] | 1.32 |  |  |  |
